This is an account of results in patent US20250204535A1, “Rodenticide” (priority 2022, published 2025).

Marks after values point to notes of the source that are not given here. Some results are limits rather than exact numbers.

For data set [1] the following is noted: dogs; study of 2020 (Seljetun et al); cited from earlier work.
The next data set deals with Caco-2 cells. The data set can be described thus: Caco-2 permeability assay (bi-directional). The conditions noted are these: positive control. Here is the method: Cells were seeded on to Millipore Multiscreen Transwell plates at 1×10^5 cells/cm^2. The cells were cultured in DMEM and media was changed every two or three days. On day 20, the permeability study was performed. […] On the day of the assay, the monolayers were prepared by rinsing both basolateral and apical surfaces twice with Hanks Balanced Salt Solution (HBSS) at the desired pH warmed to 37° C. Cells were then incubated with HBSS at the desired pH in both apical and basolateral compartments for 40 min to stabilise physiological parameters.
The fluorescent integrity marker lucifer yellow was also included in the dosing solution. Analytical standards were prepared from test compound water dilutions and transferred to buffer, maintaining a ≤1% v/v water concentration. Assay buffer was composed of supplemented HBSS pH 7.4.
For assessment of apical to basolateral (A2B) permeability, HBSS was removed from the apical compartment and replaced with test compound dosing solution. The apical compartment insert was then placed into a companion plate containing fresh buffer (containing ≤1% v/v Water). For assessment of B2A permeability, HBSS was removed from the companion plate and replaced with test compound dosing solution. Fresh buffer (containing ≤1% v/v Water) was added to the apical compartment insert, which was then placed into the companion plate.
At 120 min, the apical compartment inserts and the companion plates were separated, and apical and basolateral samples diluted for analysis. Test compound permeability was assessed in duplicate. Compounds of known permeability characteristics were run as controls on each assay plate.
Test and control compounds were quantified by LC-MS/MS cassette analysis using a 7-point calibration with appropriate dilution of the samples. Cyprotex generic analytical conditions were used. The starting concentration (CO) was determined from the dosing solution and the experimental recovery calculated from CO and both apical and basolateral compartment concentrations.
The integrity of the polarised cell monolayers throughout the experiment was checked by monitoring lucifer yellow permeation using fluorometric analysis. Permeation of this paracellular marker is low if monolayers have not been damaged. […] If this was not the case, then the result from the affected monolayer was excluded.
The determined concentration (nM≡pmol/mL) of each test sample receiver well is multiplied by the volume of the receiver compartment (apical=0.09 mL, basolateral=0.210 mL) to calculate the amount (pmol) of probe substrate permeating the monolayer.
Where dQ/dt is the rate of permeation of the drug across the cells, C0 is the donor compartment concentration at time zero and A is the area of the cell monolayer. C0 was obtained from analysis of the dosing solution.
An efflux ratio (ER) was calculated from mean A to B and B to A data. This is derived from:
Percentage recovery (mass balance) of the test compound or positive control substrate was calculated by dividing the sum of the amount (pmol) in the receiver and donor compartments post-incubation by the amount in the initial donor solution at time zero (C0) and expressing as a percentage.
The insert was inserted into the well of a plate to form an Apical chamber (above cells) and basolateral chamber (below cells), with a permeable membrane between the two layers. Compound was then added to either the apical or basolateral chamber and the passage of it monitored into the other chamber. Transfer of the test compound from the apical to basolateral chamber was indicative of cellular uptake, simulating transition of the compound from the intestinal lumen to the bloodstream by uptake receptors (Direction A). […] An Efflux ratio was then calculated from the values obtained for A2B and B2A transmission.

Data set [2] concerns neonatal rat cardiac fibroblast cells. The data set can be described thus: Screening purified venom fractions for rat cardiac fibroblast toxicity (resazurin). Format: cell-based. The procedure: (§1) Hearts were collected from euthanised 1-2-day old neonatal rat pups and transferred into filter sterilised ice-cold Hanks balanced salt solution (HBSS) containing 2% Pen-strep. Hearts were washed in the HBSS, any non-heart tissue removed and then cut into 1-3 mm pieces and placed in 40 ml filter sterilised, ice cold 0.1% trypsin/HBSS. The heart pieces in trypsin were place in a large ice bucket and incubated overnight at 4° C. on a rocker with gentle agitation to allow the tissue to digest.
The following day, all trypsin was aspirated from the tissue and the tissue transferred evenly into 2 ml Eppendorf tubes. The tissue was then digested further using a 37° C. 1 mg/ml collagenase/HBSS (filter sterilised) solution. For each collagenase digestion, 2 ml of enzyme buffer was added to all Eppendorf tubes and the tubes incubated in a 37° C. heating block for 2 mins with 400 rpm agitation. The supernatant from the first two digestions was discarded. After each of the following digestion steps, the tissue was gently triturated using a pipette to release cells. Once trituration was complete the supernatant was retained, added to a tube containing 10 ml cell culture media and stored on ice.
All cell containing supernatants were filtered through a 250 μm cell strainer to remove any potentially undigested tissue and myocytes separated from cardiac fibroblast by spinning the supernatant at 1800 g for 45 mins through a Percoll gradient. […]
(§2) Neonatal rat cardiomyocytes and cardiac fibroblasts were treated with purified venom fractions suspected of being cardiotoxins at doses of 12.5, 7.5, 6 μg/ml, with rat cardiomyocytes being treated at additional concentrations of 3.5, 2.5, 1 and 0.5 μg/ml for 2 hs in a humidified incubator at 37° C., 5% CO2. […] The change in fluorescence of the resazurin dye was monitored over a 5 h timeframe using a BMG Fluostar plate reader. Percent inhibition of both cell types in response to each fraction at each dose were calculated and plotted graphically.

For data set [3], the system named is rat neonatal cardiomyocyte cells. Format: cell-based. The conditions noted are these: 6 μg/ml, rat cardiomyocytes. Here is the method:
Thermal stability of the six lead fractions was investigated. Aliquots of each fraction were heated in a heat block to 37° C. (unheated), 60° C., 80° C. and 100° C. before being used to treat rat neonatal cardiomyocyte cells at a dose of 6 μg/ml. Cardiomyocyte toxicity was assessed after 24 hrs of dosing at each temperature against a similar aliquot of each fraction that had been unheated before dosing. After 24 h, 160 μM Resazurin dye was added to all cells and the change in cardiomyocyte cell viability/metabolism monitored every hour up to 5 h post dye addition. An additional measurement was recorded 24 hs after the dye had been added.

Data set [4] concerns Neonatal rat cardiomyocytes. In words: Screening purified venom fractions for alterations to cardiomyocyte beat rates. The conditions noted are these: for Highest Achieved Fold Increases in Beat Rate: 1 h; for fold increases to beat rate: dose of 6 μg/ml. Format: cell-based. The procedure:
Neonatal rat cardiomyocytes were isolated as via standard protocol and seeded at a density of 100,000 cells/96 well. Once myocyte cultures were beating spontaneously in uniform sheets, they were videoed well-by-well using a microscope camera to determine pre-dose beat rates/min. […] Cells were incubated in each fraction in a humidified incubator at 37° C., 5% CO2 for 1 h. After 1 h videos of the cells were re-recorded to obtain the post-dosing beat rate/minute. Fold changes in beat frequency were calculated for each dosed well pair.

The test system of data set [5] is Human IPSC-derived cardiomyocytes. The data set can be described thus: Six lead fractions: toxicity to human IPSC-derived cardiomyocytes (resazurin). Format: cell-based. The conditions noted are these: for cytotoxicity against human IPSC-derived cardiomyocytes: 7.5, 6, 3.5, 2.5 and 1 μg/ml, 2 h, FIG. 3. The procedure:
Human IPSC-derived cardiomyocytes were purchased from Axol Biosciences and cultured as via their standard methodology. Briefly, cells were recovered from liquid nitrogen storage when required and the cells transferred dropwise into 10 ml of pre-warmed (37° C.) plating media (cardiomyocyte maintenance media+10% FCS+10 μM ROCK inhibitor). Cells were centrifuged at 200×g for 5 mins at room temperature. The supernatant was aspirated from the cell pellet and the cell pellet gently resuspended in 1 ml plating media. Cells were counted using a haemocytometer and trypan blue staining. Cells were plated at a seeding density of 10-20,000 cells/well in fibronectin pre-coated 384 well plates. Cells were incubated at 37° C., 5% CO2 in a humidified incubator overnight before the plating media was removed the following day and replace with fresh maintenance media (No FCS, no ROCK inhibitor). Partial media changes were performed every 2-days until cells formed a single continuous sheet of spontaneously beating cardiomyocytes (7-10 day in culture).
Once beating spontaneously, cells were treated with the six lead fractions diluted in maintenance media to final working concentrations of 7.5, 6, 3.5, 2.5 and 1 μg/ml. 30 μl of each fraction dilution was added to triplicate wells of cells and incubated for 2 h at 37° C., 5% CO2 in a humidified incubator. After 2 h, resazurin dye at a final working concentration of 160 μM were added to all wells and the change in fluorescence of the plate monitored over a 5 h timeframe using a BMG Labtech Fluostar plate reader. Percent toxicity was calculated from triplicate wells at each dose and plotted graphically.
Human IPSC derived cardiomyocytes were dosed in triplicate with a serial dilution of each of the six venom fractions (7.5, 6, 3.5, 2.5 and 1 μg/ml) for 2 hs at 37° C., 5% CO2 before resazurin dye was added and the change in colour and fluorescence monitored for the following 5 hrs. Percentage toxicity was calculated for each fraction at all doses and plotted graphically (FIG. 3).
On the technique in general: The colour change of resazurin is a common sign of viable cells or microbes.

Data set [6] relates to Neonatal rat cardiomyocytes. The data set can be described thus: Screening purified venom fractions for rat cardiomyocyte toxicity (resazurin). Format: cell-based. Here is the method: as §1
The following day, all trypsin was aspirated from the tissue and the tissue transferred evenly into 2 ml Eppendorf tubes. The tissue was then digested further using a 37° C. 1 mg/ml collagenase/HBSS (filter sterilised) solution. […]
as §2

The mark [7] stands for this setting: any of the tested doses, up to 12.5 μg/ml.

For the molecule `O=c1oc2ccccc2c(O)c1C1CC(c2ccc(-c3ccc(Br)cc3)cc2)Cc2ccccc21` (stereo not shown) [Brodifacoum, 3-[3-(4′-bromobiphenyl-4-yl)-1,2,3,4-tetrahydronaphth-1-yl]-4-hydroxycoumarin], the “time present in dog faeces after a single ingestion” value in data set [1] is on record as “more than 700 days”.
On to `O=c1oc2ccccc2c(O)c1C1CC(c2ccc(-c3ccccc3)cc2)Cc2ccccc21` (stereo not shown) [Difenacoum, 3-[3-p-diphenyl-1,2,3,4-hydronaphth-1-yl]-4-hydroxycoumarin], for which, in data set [1], the “time present in dog faeces after a single ingestion” value was > 650 days.
Turning to `C[C@]12CC[C@@H]3c4ccc(OS(=O)(=O)O)cc4CC[C@H]3[C@@H]1CCC2=O` [Estrone 3-sulfate, estrone 3-sulfate], the “Mean % Recovery” value in the data set on Caco-2 cells (A2B) is recorded as 68.6%; in the data set on Caco-2 cells (B2A) it was 85.7%. In addition, the “Papp Mean” value with Caco-2 cells (A2B, 120 min, pH 7.4) was 0.225 ×10^−6 cms^−1; with Caco-2 cells (B2A, 120 min, pH 7.4), 34.9 ×10^−6 cms^−1. Further, the “Papp Rep 1” value in the data set on Caco-2 cells (A2B, 120 min, pH 7.4) is 0.225 ×10^−6 cms^−1; in the data set with Caco-2 cells (B2A, 120 min, pH 7.4) it was 33.1 ×10^−6 cms^−1. Further, the “Papp Rep 2” value with Caco-2 cells (B2A, 120 min, pH 7.4) was 36.6 ×10^−6 cms^−1. Further, the “ER (efflux ratio)” value in the data set on Caco-2 cells (from mean A to B and B to A data) is recorded as 155 ^b.
Consider “N.aan_I15_R4 (LKCHKLVPPVWKTCPEGKNLCYKMFMVSTSTVPVKRGCIDVCPKDSALVKYVCCSTDKCN)”, for which the “toxicity to cardiac fibroblasts (in words)” value in data set [2] (setting [7]) is “no visibly or detectible toxicity”. In addition, the “reduction of cardiomyocyte toxicity after heating” value in data set [3] (fraction heated at 100° C. vs 37° C., 24 h) was ~10%. In addition, the “Highest Achieved Fold Increases in Beat Rate” value in data set [4] (Dose 6 μg/ml) was found to be 3.50 fold. Moreover, the “fold increases to beat rate” value in data set [4] is recorded as “greater than 3.5 fold”. The “cytotoxicity against human IPSC-derived cardiomyocytes” value is “no observable cardiomyocyte cellular toxicity” in data set [5] and “low levels of cytotoxicity” in data set [5] (listed as N.ann_I15_R4). In data set [6] (setting [7]), the “toxicity to rat cardiomyocytes (in words)” value was “no visibly or detectible toxicity”.
Take “N.atr_I28_R3 (LKCNKLVPLFYKTCPAGKNLCYKMFMVSNLTVPVKRGCIDVCPKSSLLVKYVCCNTDRCN)”: the “Highest Achieved Fold Increases in Beat Rate” value in data set [4] (Dose 6 μg/ml) is on record as 5.35 fold. The “fold increases to beat rate” value in data set [4] is “greater than 5 fold”. In addition, the “toxicity in human IPSC-derived cells compared to rodent cardiomyocytes” value in data set [5] (3.5 μg/ml) is “reduction in toxicity”.
Turning to “N.naj_I25_R3 (LKCNKLVPLFYKTCPAGKDLCYKMYMVATPKVPVKRGCIDVCPKSSLLVKYVCCNTDRCN)”, the “doses showing cardiac fibroblast toxicity” value in data set [2] (neonatal rat cardiac fibroblasts) came to 12.5 µg/mL. Further, the “thermal stability (change in cytotoxic activity after heating)” value in data set [3] (37, 60, 80, 100° C., FIG. 4) is listed as “no significant changes in the activity”. Also, in data set [4] (Dose 3.5 μg/ml), the “Highest Achieved Fold Increases in Beat Rate” value stood at 13.75 fold. The “fold increases to beat rate” value in data set [4] is recorded as “greater than 8.5 fold”. For the same molecule, in data set [6] (neonatal rat cardiomyocytes), the “doses showing rat cardiomyocyte toxicity” value was ≥ 6 µg/mL.
